Assay results taken from US20080188680A1, “Process Improvement Using Solubility Characteristics” (priority 2005, published 2008).

How the values were obtained:
[1] = Gravimetric solubility of diester in methanol (saturated solution); type: physicochemical
Procedure: The solubility of dimethyl-5-nitrophthalate (“diester”) in methanol was determined through the normal boiling of methanol, and presented in the following table:
Using glass pressure test tubes immersed in boiling water, an additional point for the solubility of diester at 100° C. was measured to be about 58 wt % diester.
Generally, the solubility was determined gravimetrically. A dilute slurry of diester and methanol was heated to a desired temperature. As needed, more diester solids were added to maintain a dilute slurry. The slurry was heated to a known temperature and stirred for approximately 15-30 minutes to assure the diester solids were equilibrated and the solution was saturated. Then, the stirring was stopped and the diester solids were allowed to settle. A sample of the supernatant liquid was obtained, the liquid was evaporated and the weight of the residual diester was measured. The weight of the residual diester solid was used to calculate the solubility of the diester solid in the methanol. This procedure was repeated for several different temperatures. Then, from the highest temperature, the procedure was repeated except the slurry was cooled to each sampling point and methanol was added instead of diester solids as necessary to maintain a dilute slurry. The difference in the solubility data sets between the heating data set and the cooling data set is an indication of how well equilibrium was obtained.

[2] = Activity coefficient of diester in saturated methanol solution, transformed from the solubility data; type: physicochemical; set-up: key: γ = ideal mole-fraction solubility / actual mole-fraction solubility
Text: Solubility data can be compared to the ideal solubility. Two component solubility data (solute and solvent) at various temperatures can be easily calculated as a mole fraction of the solute in solution. The ratio of the mole fraction ideal solubility, xsolute ideal (calculated at the same temperature as the solubility data point) to each mole fraction solubility data point, xsolute actual is the activity coefficient, γsolute. These relationships are expressed mathematically, per equation (2)
In order to solve equation (3) for the activity coefficient, three experimental values are necessary: (i) the melting point of the solute, (ii) the heat of fusion of the solute in cal/g·mol and (iii) at least one value for the solubility of the specific solute in a specific solvent. Assuming the heat of fusion of the solute is constant over the range of temperatures, the relationship in equation (3) allows the mathematical transformation of the temperature and solubility data into an activity coefficient for the solute at each temperature. The terms in equation (3) are defined as follows: γsolute is the activity coefficient of the solute, xsolute is the mole fraction of the solute at a given temperature, T, in K; −ΔH^Fsolute is the heat of fusion in cal/g·mol of the solute, R is the ideal gas constant in cal/K·mol, T is the temperature of a given value for xsolute in K; and Tm(solute) is the melting temperature of the solute in K.
To interpret the solubility information, additional physical properties of diester were measured. The melting point was 124° C. (123-125° C.). The heat of fusion was 7422 cal/g·mole.
The solubility of diester, being a non-electrolyte, would obey the following thermodynamic relationship.
This relationship allows the weight % solubility versus temperature data to be mathematically transformed into an activity coefficient versus temperature data. The corresponding activity coefficient for each solubility data point is as follows: […]

With `COC(=O)c1cc(C(=O)OC)cc([N+](=O)[O-])c1` [Diester, dimethyl-5-nitro-isophthalate] as the compound, how does the solubility ([1]; 25° C.) read?
The solubility was “about 1 wt. %”.

What about the “wt % Diester (solubility in methanol)” value ([1]; methanol, 25.5 C) of the same compound?
The value was 1.0% wt %.

And the “wt % Diester (solubility in methanol)” value ([1]; methanol, 31.1 C)?
Its value is 1.2% wt %.

What about the “wt % Diester (solubility in methanol)” value ([1]; methanol, 34.1 C) of the same compound?
Its value is 1.4% wt %.

And the “wt % Diester (solubility in methanol)” value ([1]; methanol, 34.6 C)?
Its value is 1.5% wt %.

What about the “wt % Diester (solubility in methanol)” value ([1]; methanol, 39.6 C) of the same compound?
The value was 1.9% wt %.

And the “wt % Diester (solubility in methanol)” value ([1]; methanol, 44.0 C)?
Its value is 2.3% wt %.

What about the “wt % Diester (solubility in methanol)” value ([1]; methanol, 44.3 C) of the same compound?
The value was 2.3% wt %.

And the “wt % Diester (solubility in methanol)” value ([1]; methanol, 52.4 C)?
Its value is 3.5% wt %.

What about the “wt % Diester (solubility in methanol)” value ([1]; methanol, 54.1 C) of the same compound?
The value was 3.7% wt %.

What about the “wt % Diester (solubility in methanol)” value ([1]; methanol, 61.2 C) of the same compound?
Its value is 5.7% wt %.

And the “wt % Diester (solubility in methanol)” value ([1]; methanol, 65.3 C)?
The value was 7.0% wt %.

And the “wt % Diester (solubility in methanol)” value ([1]; methanol, 65.4 C)?
Its value is 7.0% wt %.

And the “wt % Diester (solubility in methanol)” value ([1]; methanol, 100 C, glass pressure test tubes in boiling water)?
Its value is 58.0% wt %.

What about the “wt % Diester (solubility in methanol)” value ([1]; methanol, 100 C, glass pressure test tubes in boiling water, listed as diester) of the same compound?
Its value is “about 58 wt %”.

And the “wt % Diester (solubility in methanol)” value ([1]; methanol, 100 C, glass pressure test tubes in boiling water, listed as dimethyl-5-nitro-isophthalate)?
The value was “about 58 wt %”.

And the “maximum solubility obtained below the normal boiling point of methanol” value ([1]; methanol, below normal boiling point)?
Its value is 7 wt. %.

And the “concentration of diester solutions obtained” value ([1]; methanol, temperature above 100° C.)?
The value was “greater than 70 wt. %”.

What about the “Activ Coef” value ([2]; 25.5 C) of the same compound?
The value was 36.3.

And the “Activ Coef” value ([2]; 31.1 C)?
Its value is 33.7.

And the “Activ Coef” value ([2]; 34.1 C)?
The value was 32.4.

What about the “Activ Coef” value ([2]; 34.6 C) of the same compound?
Its value is 32.1.

And the “Activ Coef” value ([2]; 39.6 C)?
The value was 30.1.

What about the “Activ Coef” value ([2]; 44.0 C) of the same compound?
Its value is 28.4.

What about the “Activ Coef” value ([2]; 44.3 C) of the same compound?
Its value is 28.3.

And the “Activ Coef” value ([2]; 52.4 C)?
The value was 25.3.

What about the “Activ Coef” value ([2]; 54.1 C) of the same compound?
Its value is 24.7.

What about the “Activ Coef” value ([2]; 61.2 C) of the same compound?
Its value is 21.9.

What about the “Activ Coef” value ([2]; 65.3 C) of the same compound?
Its value is 20.4.

What about the “Activ Coef” value ([2]; 65.4 C) of the same compound?
Its value is 20.5.

And the “Activ Coef” value ([2]; 100.0 C)?
Its value is 3.5.
